This is an account of results in paper PMC11963983 (2025).

This experiment concerns ΔSite1-PK-riboCdA (RNA, riboswitch) GGGAAGACAAACAUGCCGAAUCCGAAAGGUACCGAGGAACCGCUUUUUGGCGCUAAUCUGCUGUGAAGCAGCAGUAGGGAUACCUUCUGUCCCGCGCGCGACAGCUAACUCGGGAGGGCAUAAAGGAAGGAGAUUUGCAGUG
The experiment is described as follows: smFRET, high-FRET. To be noted: 50 mM Na+, 0.75 mM Mg2+; 10 mM Tris-HCl pH 8.0, room temperature.

Turning to `Nc1ncnc2c1ncn2[C@@H]1O[C@@H]2COP(=O)(O)O[C@H]3[C@@H](O)[C@H](n4cnc5c(N)ncnc54)O[C@@H]3COP(=O)(O)O[C@H]2[C@H]1O`, the EC50 is reported as ~ 78.9 μM.
